The test system of experiment [1] is LTB4 synthesis by rat glycogen-elicited polymorphonuclear leukocytes (lipoxygenase). Description: Inhibition of LTB4 synthesis by rat glycogen-elicited polymorphonuclear leukocytes (PMN). To be noted: Leukocyte, A 23187 and exogenous AA; for inhibition at 0.5 µM: negative value denotes potentiation. The experiment is classed as cell-based, rat (female Wistar). The source says:
This is especially true with respect to 5,12-diHETE, which is also denoted as LTB4 [see Ford-Hitchinson, J. Roy. Soc. Med., 74, 831 (1981)]. Compounds which inhibit the PLA2 -mediated release of arachidonic acid thereby effectively prevent the oxidation of arachidonic acid to the various leukotriene products via the lipoxygenase cascade. Accordingly, the specificity of action of PLA2 inhibitors can be determined by the activity of test compounds in this assay, which measures the ability of compounds to inhibit the synthesis of LTB4 by rat glycogen-elicited polymorphonuclear leukocytes (PMN) in the presence of exogenous substrate.
(§1) The assay is carried out as follows:
(§2) Rat polymorphonuclear leukocytes (PMNs) are obtained from female Wistar rats (150-200 g) which receive an injection of 6% glycogen (10 ml i.p.). Rats are sacrificed 18-24 hours post injection by CO2 asphyxiation and the elicited cells are harvested by peritoneal lavage using physiological saline (0.9% NaCl). The exudate is centrifuged at 400×g for 10 minutes. The supernatant fluid is discarded and the cell pellet is resuspended to a concentration of 2.0×10^7 cells/ml in HBSS containing Ca^++ and Mg^++ and 10 μM L-cysteine.
(§3) To 1 ml aliquots of cell suspension, test drugs or vehicle are added, then preincubated at 37° C. for 10 minutes. A 23187 (1 μM), [^3 H]-AA (3.0 μCi/ml) and unlabeled AA (1 μM) are then added and the samples are further incubated for 10 minutes. The reaction is terminated by centrifugation and pelleting cells. Supernatants are then analyzed by HPLC analysis on a 15 cm×4.6 mm ID supelcosil LC-18 (Supelco)(3M) column, using a two solvent system at a flow rate of 1.4 ml total flow as follows:
Gradient: (system is equillibrated with Solvent A)
(§4) Percent solvent changes are accomplished in a linear fashion.
(§5) Injections: 150 μl of each supernatant is injected directly onto column and ^3 H arachidonic acid metabolites are monitored using an on-line radioactivity detector (Ramona, IN/US, Fairfield, NJ).
(§6) Standards: 10^4 -2.0×10^4 dpm of eicosanoids of interest are injected in 90 μl EtOH cocktail.
(§7) Co-chromatography with standard [^3 H] leukotriene B4 (LTB4) in medium of stimulated PMN exposed to drug is compared to that found in medium of stimulated cells exposed to no drug, generating percent inhibition.
(§8) Results are expressed as percent inhibition at a given compound dose or as an IC50 value.

The subject of experiment [2] is paw edema induced by exogenous PLA2 (snake, A. piscivorus piscivorus). Description: In vivo PLA2 murine paw edema assay. The arrangement: species or system mouse (male CD-1). The conditions noted are these: for change in vivo at 1 mg/kg: Mus musculus, ip, 0.5 h; for % Change in Edema 30 min / change in vivo at 1 mg/kg: 30 min. How it is done:
The ability of the compounds of the invention to inhibit paw edema induced by the exogenous administration of PLA2 is measured in the in vivo PLA2 murine paw edema assay.
as §1
Non-fasted, male CD-1 mice (8 weeks old; 31-36 grams) are placed in plastic boxes in groups of six. The right hind paw volume is measured using mercury plethysmography (zero time). […] A solution of purified PLA2, from the diamond back cotton mouth snake (A. piscivorus piscivorus) is prepared in saline at a concentration of 6 μg/ml. Fifty (50) μl (0.3 μg) of this PLA2 solution is injected subcutaneously into the right hind paw with a plastic 1 ml plastic syringe (27 gauge, 1" needle). Paw volume of the injected paw is measured again at 10 minutes, 30 minutes and 60 minutes after PLA2 injection. Animals are euthanized with CO2 at the completion of the study.
The paw edema is calculated by subtracting the zero time volume from the volume recorded at each time period. Mean paw edema for each treatment group is then calculated and expressed as (μl±S.E.). Drug effects are expressed as a percent change from control (vehicle) values. Statistical significance is determined by a one-way analysis of variance with LSD comparison to control (p<0.05). ED50 's are determined using repression analysis.

The target of experiment [3] is T1, human synovial fluid PLA2 (Homo sapiens, UniProt P14555).
T1 construct: Purified human synovial fluid; from tissue; host or cells: human synovial fluid
T1 sequence (P14555 21-144): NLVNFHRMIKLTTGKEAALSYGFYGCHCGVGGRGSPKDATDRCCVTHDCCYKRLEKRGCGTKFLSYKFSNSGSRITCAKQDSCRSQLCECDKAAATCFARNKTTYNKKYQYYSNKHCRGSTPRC
The experiment is described as follows: In vitro isolated phospholipase A2 assay, human synovial fluid PLA2. The experiment is classed as biochemical. To be noted: 10 μM; human synovial fluid; negative values denote potentiation; read-out: % Inhibition at 10 μM HSF. Here is the method: The compounds of the invention are tested in an in vitro isolated phospholipase A2 assay to determine the ability of the test compounds to inhibit the release of arachidonic acid from an arachidonic acid-containing substrate by the action of phospholipase A2 enzyme from human and non-human sources.
(§9) This assay is carried out as follows:
Into a 15 mL polypropylene tube are added the following:
*pre-incubate at room temperature 30 min prior to substrate addition.
^5 Stock 10 mM prepared in dimethyl sulfoxide. Make 1:2 dilution with
dimethyl sulfoxide and add 1 μ L to 100 μL assay tube.
^6 Two human PLA2 enzymes are used:
b) Purified human synovial fluid.
Incubate the 100 μL reaction mixture for 10 minutes at 37° C. in a shaking water bath. The reaction is terminated by the addition of 2 mL tetrahydrofuran, followed by vortexing. NH2 columns (100 μg/mL--Analytichem International) are conditioned with 0.5 mL tetrahydrofuran followed by 0.5 mL tetrahydrofuran/water (2 mL:0.1 mL, v/v).
The sample is loaded onto the columns and slowly drawn through them. The hydrolyzed arachidonic acid retained in the columns is eluted therefrom with 1 mL tetrahydrofuran/glacial acetic acid (2%). The arachidonic acid is transferred to scintillation vials and quantitated by β-counting analysis. A "total counts" sample is prepared by pipetting 25 μL ^3 H-arachidonate E. coli directly into a scintillation vial to which is added 1 mL tetrahydrofuran. 10 mL aquasol (scintillation cocktail) is added to all samples. [formula]

The target of a further experiment is T2, human platelet PLA2 (Homo sapiens, UniProt P14555).
T2 construct: Semipurified human platelet acid extract PLA2; from tissue; host or cells: human platelets (semipurified acid extract)
T2 sequence (P14555 21-144): T1 sequence (P14555 21-144)
Description: In vitro isolated phospholipase A2 assay, human platelet PLA2 (arachidonic acid release from 3H-AA E. coli substrate). The format is biochemical. To be noted: 10 μM; human platelet; negative values denote potentiation; read-out: % Inhibition at 10 μM HP.

The test system of experiment [4] is TxB2 synthesis (cyclooxygenase) by rat glycogen-elicited polymorphonuclear leukocytes. Description: Inhibition of TxB2 synthesis by rat glycogen-elicited PMN (cyclooxygenase). The format is cell-based, rat (female Wistar). The conditions noted are these: Rattus norvegicus, Leukocyte; for inhibition at 0.5 µM: negative values denote potentiation of cyclooxygenase. How it is done: as §2, §3, §4, §5, §6, §7, §8
In this assay, the procedure of Example 19 is carried out as described. However, in order to determine cyclooxygenase activity, the samples are co-chromatographed with authentic reference [^3 H]-TxB2.
The results are calculated as in Example 19 and presented below: […]

The next experiment deals with LTC4. The experiment is described as follows: In vivo murine zymosan peritonitis assay, LTC4 (lipoxygenase pathway). The arrangement: species or system mouse (male CD-1). To be noted: p.o., mouse, standard drugs. How it is done: The compounds of the invention are evaluated for their ability to inhibit the lipoxygenase and/or cyclooxygenase pathways of arachidonic acid metabolism in the in vivo murine zymosan peritonitis assay.
as §9
Male CD-1 mice (8 weeks old) are placed in plastic boxes in groups of six. Animals are injected with 1 ml i.p. of either 1% zymosan in pyrogen free 0.9% saline or saline (unstimulated control). Compounds are dosed orally 1 hour prior to zymosan injection. Twenty minutes after zymosan injection, the mice are asphyxiated by CO2 inhalation and the peritoneal cavity is lavaged with 2 ml ice cold Hanks Balanced Salt Solution (HBSS) without CaCl2, MgSO4 ·7H2 O and MgCL2 ·6H2 O. Peritoneal lavage fluid from each mouse is removed by syringe and placed in 5 ml plastic test tubes put on ice and volume is noted. Preparation of samples for evaluation by ELISA is as follows: Samples are centrifuged at 800×g for 15 minutes; 1 ml of the supernatant is added to 8 ml ice cold methanol and kept at -70° C. overnight to precipitate protein; and samples are then centrifuged at 800×g for 15 minutes, followed by a drying procedure in a Savant speed vac concentrator. The samples are reconstituted with 1 ml ice cold ELISA buffer and stored at -70° C. until assayed. The assay for eicosanoids (LTC4 and 6-keto-PGF1α) is performed according to conventional ELISA procedures.
Compounds to be tested orally are suspended in 0.5% Tween 80. Compounds to be tested intraperitoneally are suspended in 0.5% methylcellulose in 0.9% saline.
The total metabolite level in lavage fluid/mouse is calculated and the significance is determined by a one-way analysis of variance with LSD comparisons to control (p≤0.05). Drug effects are expressed as a percent change from control values.

One may read the inhibition as the drop in the measured response relative to a control, in per cent. As to `O=C(O)Cc1cc(OCc2ccc3ccccc3c2)ccc1Nc1c(Cl)cccc1Cl` [Example 8, acetic acid], the inhibition at 0.5 µM in experiment [1] was determined as 67%; in experiment [4], 30%. For the same compound, the entries for the “% Change in Edema 10 min” value in experiment [2] (10 mg/kg i.p.) and in experiment [2] (50 mg/kg p.o.) were -28% and “+35%”, respectively. The “% Change in Edema 30 min” value is on record as -43% in experiment [2] (10 mg/kg i.p.) and -37% in experiment [2] (50 mg/kg p.o.). Moreover, the figures for the “% Change in Edema 60 min” value in experiment [2] (10 mg/kg i.p.) and in experiment [2] (50 mg/kg p.o.) were -47% and -24%, respectively. The inhibition at 10 µM in experiment [3] is 42.5%; at human platelet PLA2 it was -3.9%.

On to `O=C(O)Cc1cc(OCc2ccc3ccc(Cl)cc3n2)ccc1Nc1c(Cl)cccc1Cl` [Example 6, 5[(7-Chloro-2-quinolinyl)methoxy]-2-[(2,6-dichlorophenyl)amino]benzene acetic acid], for which the inhibition at 0.5 µM in experiment [1] came out at 80%. Moreover, in experiment [2] (1 mg/kg i.p.), the “% Change in Edema 3 min” value is -4%, the “% Change in Edema 10 min” value is on record as -18% and the change in vivo at 1 mg/kg was -12%. In experiment [2] (10 mg/kg i.p.), the “% Change in Edema 10 min” value is listed as -24%, the “% Change in Edema 30 min” value is -24% and the “% Change in Edema 60 min” value is listed as -32%. Moreover, in experiment [2] (50 mg/kg p.o.), the “% Change in Edema 10 min” value was -18%, the “% Change in Edema 30 min” value was -39% and the “% Change in Edema 60 min” value is -10%. Further, in experiment [3], the inhibition at 10 µM was found to be 38.8%. Further, on human platelet PLA2, the inhibition at 10 µM was -8.6%. Moreover, the inhibition at 0.5 µM in experiment [4] came out at 26%.

Regarding `COC(=O)Cc1cc(OCc2ccc3ccccc3c2)ccc1Nc1c(Cl)cccc1Cl` [Example 7, 2-[(2,6-Dichlorophenyl)amino]-5-[(2-naphthalenyl)-methoxy]benzene acetic acid methyl ester], the inhibition at 10 µM in experiment [1] was 34%; in experiment [3] it was -65.4%; at human platelet PLA2, 3.6%. For the same compound, the “% Change in Edema 10 min” value in experiment [2] (1 mg/kg i.p.) is reported as -54%; in experiment [2] (10 mg/kg i.p.), -32%. Besides, the “% Change in Edema 30 min” value in experiment [2] (10 mg/kg i.p.) is -39%. Moreover, the change in vivo at 1 mg/kg in experiment [2] (1 mg/kg i.p.) is -44%. For the same compound, the inhibition at 0.5 µM in experiment [4] is -26%.

As to `CC(C)Cc1ccc(C(C)C(=O)O)cc1` (stereo not drawn) [Ibuprofen, reference compound], the “ED50 LTC4” value in the experiment on LTC4 is “Not Active”.

For the compound `COc1ccc2c(c1)c(CC(=O)O)c(C)n2C(=O)c1ccc(Cl)cc1` [Indomethacin, reference compound], in the experiment with LTC4, the “ED50 LTC4” value is listed as “Not Active”.

On to `O=C(O)Cc1cc(OCCCCOc2ccccc2)ccc1Nc1c(Cl)cccc1Cl` [Example 9, 2-[(2,6-Dichlorophenyl)amino]-5-[(4-phenoxy)butoxy]benzene acetic acid], for which the figures for the inhibition at 0.5 µM in experiment [1] and in experiment [4] were 16% and 38%, respectively. The inhibition at 10 µM in experiment [1] is 100%; in experiment [3] it was 15.7%; at human platelet PLA2 it was 2.2%; in experiment [4] (at 10 μM), 100%. For the same compound, the “% Change in Edema 3 min” value in experiment [2] (10 mg/kg i.p.) is -41%; in experiment [2] (50 mg/kg p.o.), “+37%”. Further, the “% Change in Edema 10 min” value was -54% in experiment [2] (10 mg/kg i.p.) and -12% in experiment [2] (50 mg/kg p.o.). Also, the “% Change in Edema 30 min” value in experiment [2] (10 mg/kg i.p.) is given as -32%; in experiment [2] (50 mg/kg p.o.), -4%.

The values are drawn from patent US5159085A, “2-anilino phenylacetic acid derivatives as inhibitors of PLA2 and lipoxygenase” (American Home Products Corporation, priority 1991, dated 1992).
